Assay results: PMC5017749, “Preclinical Metabolism, Pharmacokinetics and In Vivo Analysis of New Blood-Brain-Barrier Penetrant Fingolimod Analogues: FTY720-C2 and FTY720-Mitoxy” (PLoS ONE, 2016)
Read-outs that look alike come from different tables or passages of the source.

Assays:
[1] = Metabolite profiling and identification in human hepatocytes; format: in vitro ADME; design: key to Source (peak identified in human hepatocytes): R = Rat; hr = Human; lowercase letter indicates low abundance; h: lowercase letter indicates low abundance; details: for phosphorylated metabolites / parent peak after 2 hr incubation: human hepatocytes; for parent peak after 2 hr incubation: 1 μM
Procedure: Cryopreserved hepatocytes were grown in culture and incubations were performed to generate samples to measure the formation of FTY720-C2 and FTY720-Mitoxy metabolites. Incubations of 1 mL medium containing 1 million cells and 1 μM of FTY720-C2 and FTY720-Mitoxy were conducted at 37° C in a 5% CO2 incubator for 0, 1 and 2 hr, with gentle shaking. Positive control incubations used a cocktail solution containing 10 μM testosterone and 10 μM diclofenac performed for 0, 1 and 2 hr, under similar conditions to confirm the metabolic activity of the hepatocytes. The reactions were terminated by adding 2 mL acetonitrile containing 0.02% formic acid, and thoroughly mixing with gentle vortexing. Samples were transferred into 6 mL vials and stored in the freezer (-70°C) overnight for protein precipitation. Following overnight precipitations, samples were centrifuged at 3,000 rpm for 10 min to pellet proteins. Supernatants were transferred into clean 6 mL vials and evaporated to dryness using a TurboVap concentrator system. Samples were reconstituted using 600 μL 20% acetonitrile in water, briefly vortexed to resuspend, then aliquoted for LC-MS/MS analysis. Controls incubations also included “No drug control” and “no cell control” samples treated in a similar manner as test article samples.
Metabolite profiling and identification experiments were conducted by LC-MS/MS, composed of an HPLC system consisting of an Agilent Technologies 1200 Series Model G1322A Degasser, Agilent Technologies 1200 Series Model G1312A Binary Pump, Shimadzu HTc autosampler, and Valco Model E60 Flow Diversion Valve, and coupled to an API 4000 mass spectrometer. Separations were accomplished on a Gemini C18 column (150 × 2.0 mm, 5-μm particles; Phenomenex Inc., Torrance, CA), preceded by a SecurityGuard C18 guard column (4.0 × 2.0 mm; Phenomenex Inc.). A two-component mobile phase, consisted of a linear gradient of water containing 0.5% formic acid (v/v) and methanol:acetonitrile (1:1, v/v) containing 0.5% formic acid (v/v), was pumped at 0.3 mL/min. The first 4 min of flow was diverted away from the mass spectrometer. Analysis of the positive control samples was conducted with an HPLC system consisting of two Shimadzu LC-10ATvp pumps and a LEAP Pal autosampler. Separations were accomplished on a Luna C8(2) column (50 × 2.0 mm, 3-μm particles; Phenomenex Inc., Torrance, CA), preceded by a SecurityGuard C18 column (4.0 × 2.0 mm; Phenomenex Inc.). Separation was accomplished with a gradient of water containing 0.2% formic acid and 0.012% NH4OH (v/v) versus acetonitrile at an initial rate of 0.7 mL/min. An API 4000 QTrap mass spectrometer (AB Sciex, Foster City, CA) was used for analysis of positive control samples. Each mass spectrometer used was equipped with an electrospray ionization source and operated in the positive ionization mode. Metabolite identification experiments were performed by recording full scan mass spectral data (Q1MS) for all samples, and selected samples were analyzed to obtain product ion spectra (MS/MS) of test article metabolites identified in the full scan mass spectral data.

[2] = Plasma and brain pharmacokinetics after single oral or intravenous dosing of mice; format: in vivo; details: for Tmax / half-life: male; for oral bioavailability: single oral dose; for half-life: iv
Procedure: The objectives of this study were to evaluate the pharmacokinetic profiles of FTY720-C2 and FTY720-Mitoxy following single oral and intravenous (IV) dosing of male mice and to determine blood and tissue levels of both compounds at various postdose time points. Male C57BL/6 mice were 8.4 weeks of age and weighed 20.6–24.8 g on the day of dose administration. Each animal was identified by a unique number via an ear tag with a matching cage tag. Mice were administered (two mice per time point) a single equivalent molar dose of either FTY720-C2 (1 mg/kg) or FTY720-Mitoxy (2 mg/kg) by oral or intravenous administration. As the molecular weight of FTY720-Mitoxy (704.72 g/mol) is ~ two times greater than that of FTY720-C2 (349.51 g/mol), the dose level of FTY720-Mitoxy was double that of FTY720-C2. Details of the design showing group assignments, dose groups, dose levels, as well as blood collection and necropsy time points are shown in Table 2. At the appropriate time points after dosing and blood sample collection for bioanalysis, animals were euthanized by CO2 inhalation until unresponsive, followed by decapitation. Brains were rapidly harvested, rinsed with ice cold saline, blotted dry and bisected along the mid-line. The left and right hemispheres of the brain were weighed separately. Each was placed in separate tubes, immediately flash frozen in liquid nitrogen and stored at -70°C prior to evaluation. All samples were labeled with the test facility study number, animal identification number, dose group, date, collection interval, and tissue identity (left or right brain hemisphere). Adrenal glands from each mouse were also collected and flash frozen.
FTY720-C2 and FTY720-Mitoxy concentrations in plasma and brain were determined by LC-MS/MS. Samples were first prepared by liquid-liquid extraction. To 50 μL of plasma or brain homogenate were added 50 μL of 0.1 M NaOH and 50 μL of internal standard solution (C17 sphingosine) in ethanol. Analytes were then extracted into 1 mL of methyl tert-butyl ether:dichloromethane mixture (75:25, v/v) by vortexing for 1 hr and centrifuged. Supernatants were evaporated to dryness under nitrogen. Residues were reconstituted in 150 μL of 50% methanol in water and spin filtered before applied onto XBridge C18 column (3.5-μm particle; Waters, Milford, MA) with a SecurityGuard C18 guard column (4.0 × 2.0 mm; Phenomenex Inc.). Separations were accomplished with a gradient of 0.1% acetic acid in water (v/v) versus 0.1% acetic acid in acetonitrile:methanol (75:25, v/v) at a rate of 0.5 mL/min. The eluents were further applied into an equipped API 4000 QTrap mass spectrometer (AB Sciex, Foster City, CA) with electrospray ionization (ESI) interface by two coupled LC-10 AT pumps, and monitored in multiple reaction monitoring (MRM) mode with precursor to product ion pairs for C17 sphingosine, FTY720-C2, and FTY720-Mitoxy as following: m/z 286.3 to 268.2, m/z 350.3 to 255.2, and m/z 624.4 to 289.2, respectively.
Pharmacokinetic analysis was conducted using WinNonlin Version 6.2 (Pharsight, Mountain View CA), operating as a validated software system. Non-compartmental analysis was conducted using a bolus intravenous administration model for IV dosing and an extravascular administration model for oral dosing. The peak plasma concentration, time to achieve peak plasma concentration, half-life, mean residence time, and area under the plasma or brain concentration-time curve (Cmax, Tmax, T1/2, and AUC) were calculated from mean animal plasma and brain concentrations. Nominal blood collection times were used for pharmacokinetic calculations.

[3] = IV administration, sampling 5 min, 8, 24, 48 hr
[4] = oral administration, 1 mg/kg, first sampling time point

| Compound | Source (peak identified in human hepatocytes) ([1]; FTY720-C2 incubation, Table 4) | phosphorylated metabolites [1] | parent peak after 2 hr incubation [1] | detected in plasma and brain up to (postdose) [2, 3] [h] | time to penetrate the blood-brain-barrier after delivery ([2]; IV dosing) [min] | brain concentrations compared with plasma at 8 hr postdose ([2]; after both IV and oral dosing, 8 hr postdose) | Tmax ([2]; C57BL/6, mouse, brain, IV dosing, FTY720-C2 1 mg/kg or FTY720-Mitoxy 2 mg/kg, first sampling time point, read-out: Tmax / time of highest concentration in brain (converted)) [min] | Tmax ([2]; C57BL/6, mouse, plasma, IV dosing, FTY720-C2 1 mg/kg or FTY720-Mitoxy 2 mg/kg, first sampling time point, read-out: Tmax / time of highest concentration in plasma (converted)) [min] | partitioning to brain ([2]; mice) | oral bioavailability ([2]; mice) | time of highest concentration in brain [2, 4] [h] | time of highest concentration in plasma [2, 4] [h] | detected in plasma and brain up to (postdose) ([2]; oral administration, sampling 1, 8, 24, 48 hr) [h] | Source (peak identified in human hepatocytes) ([1]; FTY720-Mitoxy incubation, Table 5) | Tmax / time of highest concentration in brain ([2]; IV dosing, FTY720-C2 1 mg/kg or FTY720-Mitoxy 2 mg/kg, first sampling time point) [min] | half-life ([2]; mouse, in vivo, 2 mg/kg, IV dosing, 2 mg/kg, read-out: brain elimination half-life (converted)) [min] | half-life ([2]; mouse, in vivo, 2 mg/kg, IV dosing, 2 mg/kg, read-out: plasma elimination half-life (converted)) [min] | half-life ([2]; mouse, in vivo, 2 mg/kg, mice, IV, plasma and brain, read-out: half-lives) [min] | Tmax ([2]; mouse, in vivo, IV dosing, FTY720-C2 1 mg/kg or FTY720-Mitoxy 2 mg/kg, first sampling time point, read-out: Tmax / time of highest concentration in plasma (converted)) [min] | detection in plasma or brain following oral dosing ([2]; oral, 2 mg/kg) |
| --- | --- | --- | --- | --- | --- | --- | --- | --- | --- | --- | --- | --- | --- | --- | --- | --- | --- | --- | --- | --- |
| CCCCCCCCc1ccc(CCC(CO)(CO)NC(C)=O)cc1 [FTY720-C2, N-(1-hydroxy-2-(hydroxymethyl)-4-(4-octylphenyl)butan-2-yl)acetamide] | H | never detected | more gradual | 8 | ≤ 5 | much higher | 5 | 5 | preferentially partition to brain | orally bioavailable | 1 | 1 | 8 | – | – | – | – | – | – | – |
| CCCCCCCCc1ccc(CCC(CO)(CO)NC(=O)CC[P+](c2ccccc2)(c2ccccc2)c2ccccc2)cc1 [FTY720-Mitoxy, N-(1-hydroxy-2-(hydroxymethyl)-4-(4-octylphenyl)butan-2-yl)-3’-triphenylphosphoniumpropanamide] | – | never detected | most FTY720-Mitoxy was still unchanged | 48 | ≤ 5 | – | – | – | preferentially partition to brain | not orally bioavailable | – | – | – | H | 5 | 106 | 56.4 | < 120 | 5 | not detected |
